In the RepoRT retention time repository (doi:10.1016/j.jhazmat.2019.121712):

assay: Thermo Scientific Acclaim RSLC 120 C18, 100 × 2.1 mm, 2.2 µm, 30 °C; A: 90% water + 10% methanol + 0.01% formic acid + 5 mM ammonium formate; B: methanol + 0.01% formic acid + 5 mM ammonium formate; gradient (min/%B) 0.1/1 3/39 14/99.9 16/99.9; conditions: stereoisomer not certain

Row | LC retention time [min] | Compound
1 | 4.31 | Cc1cc(C)nc(NS(=O)(=O)c2ccc(N)cc2)n1
2 | 9.79 | CC(C)(C)NC(=O)C1CN(Cc2cccnc2)CCN1CC(O)CC(Cc1ccccc1)C(=O)NC1c2ccccc2CC1O (stereo not given)
3 | 4.88 | CC(C)(C)NCC(O)COc1nsnc1N1CCOCC1 (stereo not given)
4 | 2.94 | CCN1CCCC1CNC(=O)c1cc(S(N)(=O)=O)ccc1OC (stereo not given)
5 | 7.03 | COc1ccc(CCN(C)CCCC(C#N)(c2ccc(OC)c(OC)c2)C(C)C)cc1OC (stereo not given)
6 | 1.31 | NC(=O)C1CCCN1 (stereo not given)
7 | 3.5 | CCCOC(=O)NCCCN(C)C
8 | 7.47 | Cc1ccc(C(CCN(C)C)c2ccccc2)cc1 (stereo not given)
9 | 7.52 | CC(CN(C)C)CN1c2ccccc2Sc2ccc(C#N)cc21 (stereo not given)
10 | 7.13 | CNC(=O)Nc1nc2ccccc2s1
11 | 5.29 | CN1CCN2c3ncccc3Cc3ccccc3C2C1 (stereo not given)
12 | 6.99 | Cc1cc(C(C)(C)C)c(O)c(C)c1CC1=NCCN1
13 | 7.35 | CCCc1nn(C)c2c(=O)[nH]c(-c3cc(S(=O)(=O)N4CCNCC4)ccc3OCC)nc12
14 | 3.76 | CON=C(C(=O)NC1C(=O)N2C(C(=O)[O-])=C(C[n+]3cccc4c3CCCC4)CSC12)c1csc(N)n1 (stereo not given)
15 | 13.4 | CCCCC(CC)COC(=O)C(C#N)=C(c1ccccc1)c1ccccc1 (stereo not given)
16 | 6.41 | c1ccc(CN(CC2=NCCN2)c2ccccc2)cc1
17 | 7.16 | CCCc1nc(C)c2c(=O)[nH]c(-c3cc(C(=O)CN4CCN(CC)CC4)ccc3OCC)nn12
18 | 9.16 | CCNc1nc(NC(C)(C)C)nc(OC)n1
19 | 14.1 | C=C(c1ccc(C(=O)O)cc1)c1cc2c(cc1C)C(C)(C)CCC2(C)C

Row | LC retention time [min] | Compound
20 | 10.7 | CN(C)C(=O)SCCCCOc1ccccc1
21 | 5.06 | CC(=O)N(C)N(C(=O)C(=O)N(C)C)c1ccccc1
22 | 7.18 | COc1ccc(C2Sc3ccccc3N(CCN(C)C)C(=O)C2OC(C)=O)cc1 (stereo not given)
23 | 8.09 | CC12CCC3=C4CCC(=O)C=C4CCC3C1CCC2(O)CC#N (stereo not given)
24 | 7.68 | CC(C)(C(=O)O)c1ccc(C(O)CCCN2CCC(C(O)(c3ccccc3)c3ccccc3)CC2)cc1 (stereo not given)
25 | 6.99 | CC(Cc1ccc(C(C)C(=O)O)cc1)C(=O)O (stereo not given)
26 | 7.76 | CCN(CC)CCN1c2ccccc2Sc2ccccc21
27 | 6.03 | CCN(Cc1ccncc1)C(=O)C(CO)c1ccccc1 (stereo not given)
28 | 8.56 | CCOC(=O)C(CCc1ccccc1)NC(C)C(=O)N1C(C(=O)O)CC2CCCC21 (stereo not given)
29 | 1.39 | Nc1ccn(C2OC(CO)C(O)C2O)c(=O)n1 (stereo not given)
30 | 10.9 | CCCc1nn(C)c2c(=O)[nH]c(-c3cc(S(=O)(=O)N4CCCCC4)ccc3OCC)nc12
31 | 2.34 | Nc1nc2c(ncn2COCCO)c(=O)[nH]1
32 | 3.24 | CN=C(NC#N)NCCSCc1nc[nH]c1C
33 | 7.41 | CC(=O)Nc1ccc(OC(=O)c2ccccc2OC(C)=O)cc1
34 | 4.93 | COCCc1ccc(OCC(O)CNC(C)C)cc1 (stereo not given)
35 | 2.23 | Nc1ccc(S(N)(=O)=O)cc1
36 | 7.45 | N#Cc1ccc2c(c1)N(CCCN1CCC(O)CC1)c1ccccc1S2
37 | 9.08 | CC(CN1CCN(CCOCCO)CC1)CN1c2ccccc2Sc2ccccc21 (stereo not given)
38 | 7.34 | CCc1cccc(C)c1N(C(=O)CS(=O)(=O)O)C(C)COC (stereo not given)

Row | LC retention time [min] | Compound
39 | 7.83 | OCCN1CCN(CCCN2c3ccccc3C=Cc3ccccc32)CC1
40 | 1.23 | NC(Cc1cnc[nH]1)C(=O)O (stereo not given)
41 | 2.63 | N=C(N)c1ccccc1
42 | 5.28 | CC(COc1ccccc1)NC(C)C(O)c1ccc(O)cc1 (stereo not given)
43 | 10.2 | CCCCN1CC(=O)N2C(Cc3c([nH]c4ccccc34)C2c2ccc3c(c2)OCO3)C1=O (stereo not given)
44 | 4.63 | Cc1cc(=O)n(-c2ccccc2)n1C
45 | 4.38 | COc1ccc(NS(=O)(=O)c2ccc(N)cc2)nn1
46 | 4.11 | CC(=O)Nc1ccc(S(=O)(=O)Nc2ncccn2)cc1
47 | 10.6 | COC(=O)C1=C(C)NC(C)=C(C(=O)OCC(C)C)C1c1ccccc1[N+](=O)[O-] (stereo not given)
48 | 7.52 | COCCCOc1ccnc(CS(=O)c2nc3ccccc3[nH]2)c1C (stereo not given)
49 | 14.4 | CCC(C)C1OC2(CCC1C)CC1CC(CC=C(C)C(OC3CC(OC)C(OC4CC(OC)C(O)C(C)O4)C(C)O3)C(C)C=CC=C3COC4C(O)C(C)=CC(C(=O)O1)C34O)O2 (stereo not given)
50 | 8.1 | CC(CN(C)C)CN1c2ccccc2Sc2ccccc21 (stereo not given)
51 | 6.01 | CC#CCn1c(N2CCCC(N)C2)nc2c1c(=O)n(Cc1nc(C)c3ccccc3n1)c(=O)n2C (stereo not given)
52 | 14.9 | Cc1ccc(N=Nc2c(O)ccc3ccccc23)c(C)c1
53 | 7.81 | CCCNCC(O)COc1ccccc1C(=O)CCc1ccccc1 (stereo not given)
54 | 3.55 | Cn1c([N+](=O)[O-])cnc1COC(N)=O
55 | 13.4 | COC1CC(OC2C(C)OC(OC3C(C)=CCC4CC(CC5(C=CC(C)C(C(C)C)O5)O4)OC(=O)C4C=C(C)C(O)C5OCC(=CC=CC3C)C45O)CC2OC)OC(C)C1O (stereo not given)
56 | 12 | CNC1C(C)OC(OC2C(C)OC(OC3C(C)=CCC4CC(CC5(C=CC(C)C(C(C)C)O5)O4)OC(=O)C4C=C(C)C(O)C5OCC(=CC=CC3C)C45O)CC2OC)CC1OC (stereo not given)
57 | 11.6 | CCCCC(CC)CN1C(=O)C2C3C=CC(C3)C2C1=O (stereo not given)

Row | Compound | LC retention time [min]
58 | COP(=S)(OC)Oc1ccc(S(N)(=O)=O)cc1 | 6.19
59 | CCCCCn1cc(C(=O)N2CCN(C)CC2)c2ccccc21 | 7.75
60 | CC12C=CC3=C4CCC(=O)C=C4CCC3C1CCC2O (stereo not given) | 8.89
61 | Cc1c(C(=O)c2cccc3ccccc23)c2cccc3c2n1C(CN1CCOCC1)CO3 (stereo not given) | 10.9
62 | COP(=S)(OC)SCn1nnc2ccccc2c1=O | 8.89
63 | CCc1ccc(C(=O)NN(C(=O)c2cc(C)cc(C)c2)C(C)(C)C)cc1 | 10.4
64 | CCCCCCn1cc(C(=O)c2cccc3ccccc23)cc1-c1ccccc1 | 13.3
65 | COc1cc(OC)nc(NC(=O)NS(=O)(=O)c2cc(NC=O)ccc2C(=O)N(C)C)n1 | 7.54
66 | C=CCC1(C(C)C#CCC)C(=O)NC(=O)N(C)C1=O (stereo not given) | 9.09
67 | CCS(=O)(=O)Cc1ccccc1OC(=O)NC | 4.63
68 | CCNCC(O)c1cccc(O)c1 (stereo not given) | 2.66
69 | CCNC(C)Cc1ccccc1 (stereo not given) | 4.4
70 | CNC(=O)C(C)SCCSP(=O)(OC)OC (stereo not given) | 5.02
71 | COc1ccc2c3c1OC1C(=O)CCC4C(C2)N(C)CCC314 (stereo not given) | 3.69
72 | CC(Cc1ccccc1)NCCC(c1ccccc1)c1ccccc1 (stereo not given) | 8.89
73 | CCCCCn1cc(C(=O)CC(C)(C)C(C)(C)O)c2ccccc21 | 11.6
74 | CC(Cc1ccc(C(C)(C)C)cc1)CN1CCCCC1 (stereo not given) | 8.62
75 | COc1nn(CSP(=S)(OC)OC)c(=O)s1 | 8.7
76 | CCOP(=S)(OCC)Oc1ccc(=O)n(-c2ccccc2)n1 | 9.79
77 | CSc1nnc(C(C)(C)C)c(=O)n1N | 7.07
78 | CNc1nc(C)c(C)c(OC(=O)N(C)C)n1 | 5.89
79 | O=C(c1cccc2ccccc12)c1cn(CCCCCO)c2ccccc12 | 10
80 | CCSC(=O)N(CC)C1CCCCC1 | 11.7
81 | COc1ccc2c3c1OC1C(OC(C)=O)=CCC4C(C2)N(C)CCC314 (stereo not given) | 4.47
82 | CCNC1(c2cccc(OC)c2)CCCCC1=O (stereo not given) | 4.93
83 | CN1CCC23c4c5ccc(OCCN6CCOCC6)c4OC2C(O)C=CC3C1C5 (stereo not given) | 2.73
84 | CC(N)Cc1c[nH]c2ccccc12 (stereo not given) | 4.44

Row | Compound | LC retention time [min]
85 | CCCCCn1cc(C(=O)c2cccc3ccccc23)c2ccccc21 | 12.4
86 | O=C(O)C1C2CCC(O2)C1C(=O)O (stereo not given) | 3.2
87 | CCOC(=O)CCN(SN(C)C(=O)Oc1cccc2c1OC(C)(C)C2)C(C)C | 11.9
88 | CCOC(=O)C(c1ccccc1)C1CCCCN1 (stereo not given) | 5.08
89 | O=P(Oc1ccccc1)(Oc1ccccc1)Oc1ccccc1 | 11
90 | CNC(C)Cc1ccc(O)c(OC)c1 (stereo not given) | 3.19
91 | CCCCc1c(C)nc(N(C)C)[nH]c1=O | 7.7
92 | CCC(c1cccc(O)c1)C(C)CN(C)C (stereo not given) | 5.01
93 | CCNC(=O)NC(=O)C(C#N)=NOC | 5.6
94 | C=CC=CCC1=C(C)C(OC(=O)C2C(C=C(C)C)C2(C)C)CC1=O (stereo not given) | 12.9
95 | CNC(=O)Oc1cc(C)cc(C)c1C | 8.4
96 | CC(C)OC(=O)Nc1ccccc1 | 8.11
97 | CCCC(NC)C(=O)c1ccccc1 (stereo not given) | 4.89
98 | CSc1nc(NC(C)C)nc(NC(C)C)n1 | 10.1
99 | COP(=S)(OC)Oc1ccc(S(=O)(=O)N(C)C)cc1 | 7.99
100 | CCCCN(CCCC)SN(C)C(=O)Oc1cccc2c1OC(C)(C)C2 | 13.8
101 | COP(=S)(OC)Oc1ccc([N+](=O)[O-])cc1 | 9.24
102 | CNC(C)CC1CCCCC1 (stereo not given) | 5.74
103 | CCCCCCCCCc1ccc(OCCOCCO)cc1 | 13.8
104 | CCCN1CC(CSC)CC2c3cccc4[nH]cc(c34)CC21 (stereo not given) | 6.19
105 | CC(C)NCC(O)c1ccc(N)c(C#N)c1 (stereo not given) | 2.99
106 | CC1CCCCC1NC(=O)Nc1ccccc1 (stereo not given) | 9.37
107 | CC1C2Cc3ccc(O)cc3C1(C)CCN2CCc1ccccc1 (stereo not given) | 6.08
108 | COc1cc2c(c(OC)c1OC)-c1ccc(OC)c(=O)cc1C(NC(C)=O)CC2 (stereo not given) | 6.43
109 | CNC(C)C(=O)c1ccc(C)cc1 (stereo not given) | 4.49
110 | CC1=C(C(=O)Nc2ccccc2)S(=O)(=O)CCO1 | 5.59
